Experimental data: ChEMBL document CHEMBL3232788, “1-(2-Hydroxy-2-methyl-3-phenoxypropanoyl)indoline-4-carbonitrile derivatives as potent and tissue selective androgen receptor modulators” (J Med Chem, 2014)
Converted amounts (≈) assume the structure as drawn. The source made the active and inactive calls. No cut-off for these calls is given here.

Key:
Androgen receptor [1] = biological target: T1, Androgen receptor (Homo sapiens, UniProt P10275); test: Displacement of [3H]mibolerone from full length human AR expressed in COS cells after 3.5 hrs by liquid scintillation counting; type: cell-based
T1 sequence (P10275 whole entry): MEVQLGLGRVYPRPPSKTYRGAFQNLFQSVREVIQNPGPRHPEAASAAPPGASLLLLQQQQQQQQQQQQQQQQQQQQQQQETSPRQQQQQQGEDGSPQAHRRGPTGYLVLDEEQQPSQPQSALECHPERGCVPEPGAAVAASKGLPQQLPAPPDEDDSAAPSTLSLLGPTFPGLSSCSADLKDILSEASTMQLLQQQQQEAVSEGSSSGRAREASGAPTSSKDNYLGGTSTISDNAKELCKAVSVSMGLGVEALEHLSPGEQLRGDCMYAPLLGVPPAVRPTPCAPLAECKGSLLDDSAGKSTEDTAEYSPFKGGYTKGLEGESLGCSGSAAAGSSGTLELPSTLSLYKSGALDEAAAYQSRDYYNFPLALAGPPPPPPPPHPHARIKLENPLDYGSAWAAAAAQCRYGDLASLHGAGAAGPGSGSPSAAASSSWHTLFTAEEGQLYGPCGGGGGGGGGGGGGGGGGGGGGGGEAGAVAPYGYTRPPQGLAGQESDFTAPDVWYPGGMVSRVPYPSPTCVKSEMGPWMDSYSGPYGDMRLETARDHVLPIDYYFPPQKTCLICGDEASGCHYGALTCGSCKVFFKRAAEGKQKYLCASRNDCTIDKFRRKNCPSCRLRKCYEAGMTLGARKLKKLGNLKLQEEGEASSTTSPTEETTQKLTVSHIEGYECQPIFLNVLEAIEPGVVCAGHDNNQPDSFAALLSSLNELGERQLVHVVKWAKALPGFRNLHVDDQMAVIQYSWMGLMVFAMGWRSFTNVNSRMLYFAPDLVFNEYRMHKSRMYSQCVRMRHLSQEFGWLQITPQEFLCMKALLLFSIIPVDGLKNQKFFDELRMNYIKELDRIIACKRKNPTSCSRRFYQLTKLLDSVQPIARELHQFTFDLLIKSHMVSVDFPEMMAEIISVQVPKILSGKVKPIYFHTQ

Androgen receptor [2] = biological target: T1, Androgen receptor; test: Agonist activity at human AR expressed in CV1 cells after 17 hrs by luciferase reporter gene assay; type: cell-based, CV-1
Androgen receptor [3] = biological target: T1, Androgen receptor; test: Binding affinity to human AR NTD (1 to 561 aa) expressed in CV1 cells coexpressing human AR-LBD (644-919 aa) assessed as N/C-termini interaction by androgenic assay; type: cell-based, CV-1
[4] = Aqueous solubility of the compound at pH 6.5; type: physicochemical
[5] = Clearance in human liver microsomes; type: ADME; conditions: read-out: CLH
[6] = Volume of distribution at steady state in Sprague-Dawley rat at 2 mg/kg, iv; type: ADME, organism-based; design: dose 2 mg/kg, route intravenous; conditions: in vivo, read-out: Vdss
[7] = AUC in Sprague-Dawley rat at 2 mg/kg, iv; type: ADME, organism-based; design: dose 2 mg/kg, route intravenous; conditions: plasma
[8] = Half life in Sprague-Dawley rat at 2 mg/kg, iv; type: ADME, organism-based; design: dose 2 mg/kg, route intravenous; conditions: in vivo
[9] = Cmax in Sprague-Dawley rat at 10 mg/kg, sc; type: ADME, organism-based; design: dose 10 mg/kg, route subcutaneous; conditions: in vivo
[10] = Tmax in Sprague-Dawley rat at 10 mg/kg, sc; type: ADME, organism-based; design: dose 10 mg/kg, route subcutaneous; conditions: in vivo
[11] = AUC in Sprague-Dawley rat at 10 mg/kg, sc; type: ADME, organism-based; design: dose 10 mg/kg, route subcutaneous; conditions: plasma
[12] = Half life in Sprague-Dawley rat at 10 mg/kg, sc; type: ADME, organism-based; design: dose 10 mg/kg, route subcutaneous; conditions: in vivo
[13] = Bioavailability in Sprague-Dawley rat at 10 mg/kg, sc; type: ADME, organism-based; conditions: in vivo
[14] = Cmax in Sprague-Dawley rat at 6 mg/kg, po; type: ADME, organism-based; design: dose 6 mg/kg, route oral; conditions: in vivo
[15] = Tmax in Sprague-Dawley rat at 6 mg/kg, po; type: ADME, organism-based; design: dose 6 mg/kg, route oral; conditions: in vivo
[16] = AUC in Sprague-Dawley rat at 6 mg/kg, po; type: ADME, organism-based; design: dose 6 mg/kg, route oral; conditions: plasma
[17] = Half life in Sprague-Dawley rat at 6 mg/kg, po; type: ADME, organism-based; design: dose 6 mg/kg, route oral; conditions: in vivo
[18] = Oral bioavailability in Sprague-Dawley rat at 6 mg/kg; type: ADME, organism-based; conditions: in vivo
Rattus norvegicus [19] = test: Increase in levator ani muscle weight in orchidectomized Sprague-Dawley rat at 3 to 30 mg/kg, sc qd for 4 days relative to vehicle-treated control; type: functional, organism-based
Rattus norvegicus [20] = test: Increase in prostate tissue weight in orchidectomized Sprague-Dawley rat at 3 to 30 mg/kg, sc qd for 4 days relative to vehicle-treated control; type: ADME, organism-based, Prostate gland; design: dose 3-30 mg/kg, route subcutaneous; conditions: in vivo, 96 h
Rattus norvegicus [21] = test: Increase in seminal vesicle weight in orchidectomized Sprague-Dawley rat at 3 to 30 mg/kg, sc qd for 4 days relative to vehicle-treated control; type: ADME, organism-based; design: dose 3-30 mg/kg, route subcutaneous; conditions: in vivo, 96 h
Rattus norvegicus [22] = test: Toxicity in Sprague-Dawley rat assessed as effect on serum luteinizing hormone level at 3 to 10 mg/kg, sc qd for 14 days relative to vehicle-treated control; type: organism-based; design: dose 3-10 mg/kg, route subcutaneous; conditions: in vivo, 336 h
Rattus norvegicus [23] = test: Toxicity in Sprague-Dawley rat assessed as effect on serum luteinizing hormone level at 100 mg/kg, sc qd for 14 days relative to vehicle-treated control; type: organism-based; design: dose 100 mg/kg, route subcutaneous; conditions: in vivo, 336 h
Rattus norvegicus [24] = test: Toxicity in Sprague-Dawley rat assessed as effect on serum total cholesterol level at 3 to 100 mg/kg, sc qd for 14 days relative to vehicle-treated control; type: organism-based; design: dose 3-100 mg/kg, route subcutaneous; conditions: in vivo, 336 h
Rattus norvegicus [25] = test: Toxicity in Sprague-Dawley rat assessed as effect on serum HDL level at 3 to 100 mg/kg, sc qd for 14 days relative to vehicle-treated control; type: organism-based; design: dose 3-100 mg/kg, route subcutaneous; conditions: in vivo, 336 h
Rattus norvegicus [26] = test: Toxicity in Sprague-Dawley rat assessed as effect on serum LDL level at 3 to 100 mg/kg, sc qd for 14 days relative to vehicle-treated control; type: organism-based; design: dose 3-100 mg/kg, route subcutaneous; conditions: in vivo, 336 h
Rattus norvegicus [27] = test: Toxicity in Sprague-Dawley rat assessed as effect on serum triglyceride level at 3 to 100 mg/kg, sc qd for 14 days relative to vehicle-treated control; type: organism-based; design: dose 3-100 mg/kg, route subcutaneous; conditions: in vivo, 336 h
[28] = biological target: Voltage-gated inwardly rectifying potassium channel KCNH2 (Homo sapiens, UniProt Q12809); test: Binding affinity to human ERG by dofetilide binding assay
Sequence of Voltage-gated inwardly rectifying potassium channel KCNH2 (Q12809 whole entry): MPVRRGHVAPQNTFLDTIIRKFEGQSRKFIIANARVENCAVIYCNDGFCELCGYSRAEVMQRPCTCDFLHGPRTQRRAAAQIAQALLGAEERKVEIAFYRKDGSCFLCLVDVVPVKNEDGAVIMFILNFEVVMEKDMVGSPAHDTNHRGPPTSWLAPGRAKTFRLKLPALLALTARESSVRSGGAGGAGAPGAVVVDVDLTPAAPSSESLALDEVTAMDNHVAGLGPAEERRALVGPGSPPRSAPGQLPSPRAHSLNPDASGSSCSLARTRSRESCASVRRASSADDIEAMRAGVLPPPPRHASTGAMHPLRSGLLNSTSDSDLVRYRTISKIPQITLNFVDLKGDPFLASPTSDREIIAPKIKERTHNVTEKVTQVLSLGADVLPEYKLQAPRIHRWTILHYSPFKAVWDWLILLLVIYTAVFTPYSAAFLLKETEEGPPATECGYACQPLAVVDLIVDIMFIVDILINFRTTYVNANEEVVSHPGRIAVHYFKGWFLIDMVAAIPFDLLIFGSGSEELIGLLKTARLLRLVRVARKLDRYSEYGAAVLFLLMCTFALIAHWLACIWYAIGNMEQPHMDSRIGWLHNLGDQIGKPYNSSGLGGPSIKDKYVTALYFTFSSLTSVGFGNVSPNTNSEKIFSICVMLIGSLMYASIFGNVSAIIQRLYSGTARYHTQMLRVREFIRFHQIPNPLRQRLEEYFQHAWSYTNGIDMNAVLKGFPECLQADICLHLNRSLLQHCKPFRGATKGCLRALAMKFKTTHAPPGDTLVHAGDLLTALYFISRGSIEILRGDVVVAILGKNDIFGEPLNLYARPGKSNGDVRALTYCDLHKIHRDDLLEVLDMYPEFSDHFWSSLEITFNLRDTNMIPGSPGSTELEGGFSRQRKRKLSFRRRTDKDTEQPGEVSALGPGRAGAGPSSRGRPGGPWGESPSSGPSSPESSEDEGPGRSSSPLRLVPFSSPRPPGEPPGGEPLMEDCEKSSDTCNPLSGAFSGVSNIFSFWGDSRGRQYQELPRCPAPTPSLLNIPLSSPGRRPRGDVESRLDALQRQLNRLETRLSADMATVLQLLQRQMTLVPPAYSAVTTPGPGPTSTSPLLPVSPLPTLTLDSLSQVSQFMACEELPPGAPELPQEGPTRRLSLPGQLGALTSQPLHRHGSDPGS

[29] = Cytotoxicity against human THLE cells; type: cell-based
Cytochrome P450 1A2 = biological target: T2, Cytochrome P450 1A2 (Homo sapiens, UniProt P05177); test: Inhibition of CYP1A2 (unknown origin) at 3 uM; type: ADME
T2 sequence (P05177 whole entry): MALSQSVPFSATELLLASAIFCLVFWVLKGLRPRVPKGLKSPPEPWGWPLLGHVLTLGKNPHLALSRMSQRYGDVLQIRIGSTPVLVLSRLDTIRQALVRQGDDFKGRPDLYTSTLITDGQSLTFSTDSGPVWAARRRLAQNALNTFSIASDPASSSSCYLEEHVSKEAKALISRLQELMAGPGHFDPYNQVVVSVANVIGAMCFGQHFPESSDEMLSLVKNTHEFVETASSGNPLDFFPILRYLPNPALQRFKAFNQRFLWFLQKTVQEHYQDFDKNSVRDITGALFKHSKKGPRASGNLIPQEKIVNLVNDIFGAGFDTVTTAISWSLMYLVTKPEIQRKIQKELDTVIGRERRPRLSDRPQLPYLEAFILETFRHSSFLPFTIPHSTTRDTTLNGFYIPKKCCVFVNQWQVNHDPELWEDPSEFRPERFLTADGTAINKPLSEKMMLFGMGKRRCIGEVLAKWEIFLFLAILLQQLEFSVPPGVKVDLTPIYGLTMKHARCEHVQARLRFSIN

Cytochrome P450 2C8 = biological target: T3, Cytochrome P450 2C8 (Homo sapiens, UniProt P10632); test: Inhibition of CYP2C8 (unknown origin) at 3 uM; type: ADME
T3 sequence (P10632 whole entry): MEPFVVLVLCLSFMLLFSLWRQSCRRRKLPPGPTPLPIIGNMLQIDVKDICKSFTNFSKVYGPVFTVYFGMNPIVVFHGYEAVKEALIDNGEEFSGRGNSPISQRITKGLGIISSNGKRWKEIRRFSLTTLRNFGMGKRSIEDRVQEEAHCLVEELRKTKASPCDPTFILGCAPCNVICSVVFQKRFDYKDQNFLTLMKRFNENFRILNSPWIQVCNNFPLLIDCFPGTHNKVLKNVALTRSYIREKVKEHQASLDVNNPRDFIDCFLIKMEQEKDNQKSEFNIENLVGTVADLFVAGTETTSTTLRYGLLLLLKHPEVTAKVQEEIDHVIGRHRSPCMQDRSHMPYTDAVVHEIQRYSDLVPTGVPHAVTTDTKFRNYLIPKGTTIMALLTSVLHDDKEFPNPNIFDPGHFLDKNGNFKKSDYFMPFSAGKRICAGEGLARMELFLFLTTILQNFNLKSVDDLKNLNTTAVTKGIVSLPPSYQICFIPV

Cytochrome P450 2C9 = Cytochrome P450 2C9 (Homo sapiens, UniProt P11712); test: Inhibition of CYP2C9 (unknown origin) at 3 uM; type: ADME
Sequence of Cytochrome P450 2C9 (P11712 whole entry): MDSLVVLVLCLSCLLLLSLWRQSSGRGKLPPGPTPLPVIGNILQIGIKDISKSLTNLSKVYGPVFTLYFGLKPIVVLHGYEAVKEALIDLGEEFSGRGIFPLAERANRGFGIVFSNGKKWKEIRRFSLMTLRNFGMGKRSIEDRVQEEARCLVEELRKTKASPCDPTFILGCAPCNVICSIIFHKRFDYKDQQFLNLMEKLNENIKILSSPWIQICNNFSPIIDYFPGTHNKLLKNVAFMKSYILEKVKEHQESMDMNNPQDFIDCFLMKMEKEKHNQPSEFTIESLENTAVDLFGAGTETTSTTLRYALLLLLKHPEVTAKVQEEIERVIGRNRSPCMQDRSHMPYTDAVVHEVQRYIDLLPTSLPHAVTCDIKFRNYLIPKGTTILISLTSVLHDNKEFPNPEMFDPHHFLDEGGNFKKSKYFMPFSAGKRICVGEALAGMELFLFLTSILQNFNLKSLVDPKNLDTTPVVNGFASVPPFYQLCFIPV

Cytochrome P450 2D6 = Cytochrome P450 2D6 (Homo sapiens, UniProt P10635); test: Inhibition of CYP2D6 (unknown origin) at 3 uM; type: ADME
Sequence of Cytochrome P450 2D6 (P10635 whole entry): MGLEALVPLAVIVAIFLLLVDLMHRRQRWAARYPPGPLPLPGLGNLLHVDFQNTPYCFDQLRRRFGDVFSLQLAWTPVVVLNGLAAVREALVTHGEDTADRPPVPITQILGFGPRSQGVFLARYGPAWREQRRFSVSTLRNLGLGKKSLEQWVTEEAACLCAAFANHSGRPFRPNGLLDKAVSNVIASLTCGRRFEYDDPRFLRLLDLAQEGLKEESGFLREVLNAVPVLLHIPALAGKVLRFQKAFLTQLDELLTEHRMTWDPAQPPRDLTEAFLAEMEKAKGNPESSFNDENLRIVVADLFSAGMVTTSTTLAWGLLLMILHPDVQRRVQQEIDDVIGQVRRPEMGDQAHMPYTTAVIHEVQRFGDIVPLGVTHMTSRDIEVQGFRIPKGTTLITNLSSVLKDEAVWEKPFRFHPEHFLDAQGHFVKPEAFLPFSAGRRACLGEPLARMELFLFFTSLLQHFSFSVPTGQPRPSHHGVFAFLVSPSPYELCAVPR

Cytochrome P450 3A4 = Cytochrome P450 3A4 (Homo sapiens, UniProt P08684); test: Inhibition of CYP3A4 (unknown origin) at 3 uM; type: ADME
Sequence of Cytochrome P450 3A4 (P08684 whole entry): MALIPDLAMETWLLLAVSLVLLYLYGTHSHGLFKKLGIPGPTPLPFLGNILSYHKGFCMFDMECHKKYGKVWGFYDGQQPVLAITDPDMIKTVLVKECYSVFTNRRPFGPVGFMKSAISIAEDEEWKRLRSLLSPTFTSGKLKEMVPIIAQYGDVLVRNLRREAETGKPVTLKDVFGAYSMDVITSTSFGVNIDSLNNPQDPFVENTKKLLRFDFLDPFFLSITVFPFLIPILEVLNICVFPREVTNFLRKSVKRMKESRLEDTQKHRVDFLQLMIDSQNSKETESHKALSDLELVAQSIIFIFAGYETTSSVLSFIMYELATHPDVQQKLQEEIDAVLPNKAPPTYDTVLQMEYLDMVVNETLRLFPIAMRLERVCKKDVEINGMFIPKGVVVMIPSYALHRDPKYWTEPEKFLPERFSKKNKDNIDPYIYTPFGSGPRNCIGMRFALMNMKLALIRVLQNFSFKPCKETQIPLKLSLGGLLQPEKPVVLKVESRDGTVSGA

[30] = Toxicity in sc dosed Sprague-Dawley rat administered qd for 14 days; type: organism-based; conditions: in vivo

SMILES: C[C@](O)(COc1ccc(F)cc1)C(=O)N1CCc2c(C#N)cccc21
- IC50 (Androgen receptor [1]): 12.7 nM
- EC50 (Androgen receptor [2]): 2.5 nM
- EC50 (Androgen receptor [3]): > 10000 nM
- solubility [4]: 14 µM (≈ 4.76 µg/mL)
- microsomal CLint [5]: 21 µL/min/mg
- Vd [6]: 6 L/kg
- AUC [7]: 1100 ng·h/mL
- half-life [8]: 5 h
- Cmax [9]: 166 ng/mL
- Tmax [10]: 4 h
- AUC [11]: 2030 ng·h/mL
- half-life [12]: 6 h
- bioavailability [13]: 37%
- Cmax [14]: 254 ng/mL
- Tmax [15]: 8 h
- AUC [16]: 3750 ng·h/mL
- half-life [17]: 5 h
- bioavailability [18]: > 100%
- Activity (Rattus norvegicus [19]): Active
- Activity (Rattus norvegicus [20]): Non-toxic
- Activity (Rattus norvegicus [21]): Non-toxic
- Activity (Rattus norvegicus [22]): Non-toxic
- Activity (Rattus norvegicus [23]): Non-toxic
- Activity (Rattus norvegicus [24]): Non-toxic
- Activity (Rattus norvegicus [25]): Non-toxic
- Activity (Rattus norvegicus [26]): Non-toxic
- Activity (Rattus norvegicus [27]): Non-toxic
- IC50 [28]: > 100000 nM
- IC50 [29]: > 300000 nM
- inhibition (INH) (Cytochrome P450 1A2): Not Active
- inhibition (INH) (Cytochrome P450 2C8): Not Active
- inhibition (INH) (Cytochrome P450 2C9): Not Active
- inhibition (INH) (Cytochrome P450 2D6): Not Active
- inhibition (INH) (Cytochrome P450 3A4): Not Active
- MTD at 336 h [30]: 100 mg/kg
